In patent US20180110824A1, “Macrocyclic Modulators of the Ghrelin Receptor” (Ocera Therapeutics, Inc., priority 2016, published 2018):
Where two headings read alike, the source gives them in different places.

Assays:
[1] = molecular target: T1, human ghrelin receptor (hGHS-R1a) (Homo sapiens, UniProt Q92847); assay: Aequorin functional assay (ghrelin receptor), CHO-K1 cells co-expressing Gα16 and aequorin; assay type: cell-based; conditions: Table 4; functional (agonist) activity; TFA salts unless otherwise noted; read-out: EC50
T1 construct: host or cells: CHO-K1 co-expressing Gα16 and mitochondrially targeted aequorin
Experimental: This cell line is typically constructed by transfection of the human ghrelin receptor into CHO-K1 cells co-expressing Gα16 and the mitochondrially targeted Aequorin (Ref #ES-WT-A5). • 1. […] Assay buffer: DMEM (Dulbecco's Modified Eagles Medium) containing 0.1% BSA (bovine serum albumin; pH 7.0). • 3. Coelenterazine (Molecular Probes, Leiden, The Netherlands). • Final test concentrations (N=8) for compounds of the invention: 10, 1, 0.3, 0.1, 0.03, 0.01, 0.003, 0.001 μM.
Stock solutions of compounds (10 mM in 100% DMSO) were provided frozen on dry ice and stored at −20° C. prior to use. […] Assay plates were then prepared by appropriate dilution in DMEM medium containing 0.1% BSA. Under these conditions, the maximal final DMSO concentration in the assay was <0.6%.
AequoScreen™ cells were collected from culture plates with Ca^2+ and Mg^2+-free phosphate buffered saline (PBS) supplemented with 5 mM EDTA, pelleted for 2 min at 1000×g re-suspended in DMEM—Ham's F12 containing 0.1% BSA at a density of 5×10^6 cells/mL, and incubated O/N at rt in the presence of 5 μM coelenterazine. After loading, cells were diluted with assay buffer to a concentration of 5×10^5 cells/mL.
For agonist testing, 50 μL of the cell suspension was mixed with 50 μL of the appropriate concentration of test compound or ghrelin (reference agonist) in 96-well plates (duplicate samples). Ghrelin (reference agonist) was tested at several concentrations concurrently with the test compounds in order to validate the experiment. The emission of light resulting from receptor activation in response to ghrelin or test compounds was recorded using the Hamamatsu FDSS 6000 reader (Hamamatsu Photonics K.K., Japan).
Results were expressed as Relative Light Units (RLU). […] EC50, Hill slope and % Emax values are reported.
• 1. Assay performed on CHO-K1 cells expressing the transfected, cloned human ghrelin receptor (hGHS-R1a) and Gα16. • 2. Suspended cells incubated O/N with coelenterazine. • 3. Stimulation of hGHS-R1a activates Gα16, causing […] Ca2+ release which ultimately leads to the oxidation of coelenterazine and the emission of a quantitative luminescent signal. • 4. Ghrelin was used as the positive control. • 5.

motilin receptor = motilin receptor (Homo sapiens, UniProt O43193); assay: Selectivity for the ghrelin receptor versus the motilin receptor; assay type: binding
Source text: The level of agonist activity and selectivity for representative compounds of the invention are shown below in Table 4.

[2] = molecular target: T2, human growth hormone secretagogue receptor (hGHS-R1a) (Homo sapiens, UniProt Q92847); assay: Competitive radioligand binding assay (ghrelin receptor), [125I]-ghrelin displacement on GHS-R/HEK 293 membranes; conditions: read-out: Ki
T2 construct: purchased PerkinElmer BioSignal #RBHGHSM; host or cells: HEK-293, stably transfected

[3] = Table 3B, binding activity at the human ghrelin receptor
[4] = Table 4, TFA salts unless otherwise noted
[5] = Binding activity at the human ghrelin receptor, [125I]-ghrelin displacement

T2 sequence (Q92847 whole entry): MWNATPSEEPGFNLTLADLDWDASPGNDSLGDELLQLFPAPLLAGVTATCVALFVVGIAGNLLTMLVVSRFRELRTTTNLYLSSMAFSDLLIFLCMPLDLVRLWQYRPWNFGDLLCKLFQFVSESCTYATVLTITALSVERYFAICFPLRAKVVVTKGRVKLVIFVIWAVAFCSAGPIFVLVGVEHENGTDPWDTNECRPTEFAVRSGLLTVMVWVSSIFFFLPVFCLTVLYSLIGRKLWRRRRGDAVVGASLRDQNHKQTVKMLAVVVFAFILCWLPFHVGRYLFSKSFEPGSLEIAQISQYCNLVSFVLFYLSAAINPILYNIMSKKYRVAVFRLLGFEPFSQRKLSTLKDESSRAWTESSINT
T1 sequence (Q92847 whole entry): as above
Chain of motilin receptor (O43193 whole entry, species assumed): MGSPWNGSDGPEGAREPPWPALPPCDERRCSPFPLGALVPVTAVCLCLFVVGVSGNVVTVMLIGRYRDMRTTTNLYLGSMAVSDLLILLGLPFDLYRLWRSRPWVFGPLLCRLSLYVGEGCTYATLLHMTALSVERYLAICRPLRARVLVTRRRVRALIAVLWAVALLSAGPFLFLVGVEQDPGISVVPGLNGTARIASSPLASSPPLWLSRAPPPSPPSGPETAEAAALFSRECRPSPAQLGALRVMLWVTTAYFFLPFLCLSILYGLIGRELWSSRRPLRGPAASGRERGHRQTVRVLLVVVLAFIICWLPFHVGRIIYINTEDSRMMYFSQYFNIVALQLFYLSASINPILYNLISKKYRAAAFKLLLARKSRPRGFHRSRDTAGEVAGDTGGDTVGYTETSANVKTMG

SMILES | EC50 [1] [nM] | Selectivity (motilin receptor) | Ki [2, 3] [nM] | Ki [2, 4] [nM] | Ki [2, 5] [nM] | Ki ([2]; Table 3C) [nM]
C[C@@H]1C(=O)N[C@H](Cc2ccc(F)cc2)C(=O)NCCCc2ncccc2OCCN[C@@H](C2CC2)C(=O)N1C [306a] | 1 to 100 | 714/1 | 10 to 100 | 10 to 100 | – | –
CCC[C@@H]1NCCOc2ccccc2CCCNC(=O)[C@@H](Cc2ccc(O)cc2)NC(=O)CN(C)C1=O [compound 7] | 1 to 100 | >100/1 | – | 100 to 1000 | 100 to 1000 | –
C[C@@H]1C(=O)N[C@H](Cc2ccccc2)C(=O)NCCCc2ccccc2OCCN[C@@H](C2CC2)C(=O)N1C [compound 17] | 1 to 100 | 2500/1 | – | 0.1 to 10 | 0.1 to 10 | –
CCC(C)C1NCCOc2ccccc2CCCNC(=O)C(Cc2cccc(Cl)c2)NC(=O)C(C)N(C)C1=O (stereo not shown) [compound 24] | – | 3039/1 | – | – | – | –
CCC(C)C1NCCOc2ccccc2CCCNC(=O)C(Cc2ccc(F)cc2)NC(=O)C(C)N(C)C1=O (stereo not shown) [compound 26] | 1 to 100 | >7700/1 | – | 0.1 to 10 | 0.1 to 10 | –
CCC(C)[C@@H]1NCCOc2ccccc2CCCNC(=O)[C@@H](Cc2ccc(OC)cc2)NC(=O)[C@@H](C)N(C)C1=O (stereo partly shown) [compound 27] | 1 to 100 | >7100/1 | – | 0.1 to 10 | 0.1 to 10 | –
CCC(C)C1NCCOc2ccccc2CCCNC(=O)C(Cc2ccc3ccccc3c2)NC(=O)C(C)N(C)C1=O (stereo not shown) [compound 31] | – | 4900/1 | – | – | – | –
CCC(C)C1NCCOc2ccccc2CCCNC(=O)C(Cc2cccs2)NC(=O)C(C)N(C)C1=O (stereo not shown) [compound 34] | – | >1000/1 | – | – | – | –
CCC(C)C1NCCOc2ccccc2CCCNC(=O)C(Cc2ccccc2)NC(=O)C(C)N(CC)C1=O (stereo not shown) [compound 43] | – | 3700/1 | – | – | – | –
CCC(C)C1NCCOc2ccccc2CCCNC(=O)C(CC(C)C)NC(=O)C(C)N(C)C1=O (stereo not shown) [compound 176] | – | 105/1 | – | – | – | –
C[C@@H]1C(=O)N[C@H](Cc2ccc(O)c(C(C)(C)C)c2)C(=O)NCCCc2ccccc2OCCN[C@@H](C2CC2)C(=O)N1C [compound 311] | – | 21/1 | 10 to 100 | 10 to 100 | – | –
C[C@@H]1C(=O)N[C@H](Cc2ccc(Cl)cc2Cl)C(=O)NCCCc2ccccc2OCCN[C@@H](C2CC2)C(=O)N1C [compound 314] | 1 to 100 | >5500/1 | 0.1 to 10 | 0.1 to 10 | – | –
CC[C@H](C)[C@@H]1NCCCCCCCCNC(=O)[C@H](Cc2cccc(Cl)c2)NC(=O)C2(CCCC2)NC1=O [compound 363] | – | 35/1 | 100 to 1000 | 100 to 1000 | – | –
C[C@@H]1C(=O)N[C@H](Cc2ccc(F)cc2)C(=O)NCCCc2ccc(F)cc2OCCN[C@@H](C2CC2)C(=O)N1C [compound 372] | 1 to 100 | 2500/1 | 0.1 to 10 | 0.1 to 10 | – | –
C[C@@H]1C(=O)N[C@H](Cc2ccc(F)cc2)C(=O)NCCCc2cc(NS(C)(=O)=O)ccc2OCCN[C@@H](C2CC2)C(=O)N1C [compound 374] | 1 to 100 | 250/1 | 10 to 100 | 10 to 100 | – | –
CC1COc2ccccc2CCCNC(=O)C(Cc2ccc(F)cc2)NC(=O)C(C)N(C)C(=O)C(C2CC2)N1 (stereo not shown) [compound 394] | – | 1700/1 | – | – | – | –

Now from value to molecule:

EC50 [1] [nM] | Selectivity (motilin receptor) | Ki [2, 3] [nM] | Ki [2, 4] [nM] | Ki [2, 5] [nM] | Ki ([2]; Table 3C) [nM] | SMILES
1 to 100 | >159/1 | 100 to 1000 | 10 to 100 | – | – | CCC(C)[C@@H]1NCCOc2ccccc2/C=C/CNC(=O)[C@H](Cc2cccc(Cl)c2)NC(=O)C2(CCCC2)NC1=O (stereo partly shown) [345a]
100 to 1000 | 142/1 | – | 10 to 100 | 10 to 100 | – | CCCC[C@@H]1NCCOc2ccccc2CCCNC(=O)[C@@H](Cc2ccccc2)NC(=O)CN(C)C1=O [Compound 1]
1 to 100 | 71/1 | – | 100 to 1000 | 100 to 1000 | – | CCC[C@@H]1NCCOc2ccccc2CCCNC(=O)[C@@H](Cc2c[nH]c3ccccc23)NC(=O)CN(C)C1=O [Compound 6]
1 to 100 | 200/1 | – | 10 to 100 | 10 to 100 | – | CC(C)C[C@@H]1NCCOc2ccccc2/C=C/CNC(=O)[C@H](Cc2ccccc2)NC(=O)C2(CCCC2)NC1=O [Compound 8]
100 to 1000 | 117/1 | – | 100 to 1000 | 100 to 1000 | – | CC(C)[C@@H]1NCCOc2ccccc2CCCNC(=O)[C@H](Cc2ccccc2)NC(=O)C2(CCCC2)NC1=O [Compound 9]
1 to 100 | 304/1 | – | 10 to 100 | 10 to 100 | – | CCC[C@@H]1NCCOc2ccccc2CCCNC(=O)[C@@H](Cc2ccccc2)NC(=O)CN(C)C1=O [Compound 10]
1 to 100 | 222/1 | – | 10 to 100 | 10 to 100 | 10 to 100 | O=C1NC/C=C/c2ccccc2OCCNC2(CCCC2)C(=O)NC2(CCCC2)C(=O)N[C@H]1Cc1ccccc1 [compound 18]
– | 1044/1 | – | – | – | – | CC(C)C[C@@H]1NCCOc2ccccc2/C=C/CNC(=O)[C@H](Cc2ccccc2Cl)NC(=O)C2(CCCC2)NC1=O [compound 20]
1 to 100 | 1078/1 | – | 0.1 to 10 | 0.1 to 10 | – | CC(C)C[C@@H]1NCCOc2ccccc2/C=C/CNC(=O)[C@H](Cc2cccc(Cl)c2)NC(=O)C2(CCCC2)NC1=O [compound 21]
– | 3400/1 | – | – | – | – | CCCC1NCCOc2ccccc2C=CCNC(=O)C(Cc2ccccc2)NC(=O)C(C)N(C)C1=O (stereo not shown) [compound 39]
– | >3300/1 | – | – | – | – | CCC(C)C1NCCOc2ccccc2C=CCNC(=O)C(Cc2ccccc2)NC(=O)C(C)N(C)C1=O (stereo not shown) [compound 40]
– | 4300/1 | – | – | – | – | CCC(C)C1NCCOc2ccccc2CCCNC(=O)C(Cc2ccccc2)NC(=O)C(C)N(C)C1=O (stereo not shown) [compound 42]
– | 346/1 | – | – | – | – | CC1(C)NC(=O)C2(CCCC2)NCCOc2ccccc2/C=C/CNC(=O)[C@H](Cc2cccc(Cl)c2)NC1=O [compound 334]
1 to 100 | 450/1 | – | 10 to 100 | – | 10 to 100 | C[C@H]1NC(=O)C2(CCCC2)NCCOc2ccccc2/C=C/CNC(=O)[C@H](Cc2cccc(Cl)c2)NC1=O [compound 351]
100 to 1000 | 74/1 | 10 to 100 | 10 to 100 | – | – | CC[C@H](C)[C@@H]1NCCOc2ccc(F)cc2CCCNC(=O)[C@H](Cc2cccc(Cl)c2)NC(=O)C2(CCCC2)NC1=O [compound 382]
– | 400/1 | – | – | – | – | CCC(C)C1NCCOc2ccccc2C2CC2CNC(=O)C(Cc2cccc(Cl)c2)NC(=O)C2(CCCC2)NC1=O (stereo not shown) [compound 388]
